From patent US8022102B2, “Unsaturated tetracyclic tetrahydrofuran derivatives” (Janssen Pharmaceutica, NV, priority 2004, dated 2011)
Where a name gives a salt, the structure may show the parent alone. Read-outs that look alike come from different tables or passages of the source.

Tests used:
[1] = molecular target: T1, human cloned 5-HT2C receptor (Homo sapiens, UniProt P28335); assay: In vitro binding affinity for 5-HT2C receptor (radioligand binding)
T1 construct: expressed in transfected cells; host or cells: CHO cells
T1 sequence (P28335 33-458): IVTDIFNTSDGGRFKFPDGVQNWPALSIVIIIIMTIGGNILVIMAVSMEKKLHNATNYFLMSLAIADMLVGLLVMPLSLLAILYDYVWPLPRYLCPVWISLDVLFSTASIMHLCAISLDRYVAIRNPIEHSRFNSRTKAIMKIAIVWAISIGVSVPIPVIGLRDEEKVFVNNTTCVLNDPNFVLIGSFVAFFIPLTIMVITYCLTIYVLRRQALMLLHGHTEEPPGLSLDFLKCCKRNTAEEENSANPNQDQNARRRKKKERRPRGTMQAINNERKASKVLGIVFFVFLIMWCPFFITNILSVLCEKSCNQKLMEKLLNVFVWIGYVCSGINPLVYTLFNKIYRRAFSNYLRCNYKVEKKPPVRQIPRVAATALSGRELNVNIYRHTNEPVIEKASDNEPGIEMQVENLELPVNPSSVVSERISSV
Method: (§1) During the incubation, the radioligands bind to the receptor. When equilibrium of binding is reached, the receptor bound radioactivity is separated from the non-bound radioactivity, and the receptor bound activity is counted. The interaction of the test compounds with the receptors is assessed in competition binding experiments. Various concentrations of the test compound are added to the incubation mixture containing the tissue preparation and the radioligand. Binding of the radioligand will be inhibited by the test compound in proportion to its binding affinity and its concentration.

[2] = molecular target: T2, NET (Rattus norvegicus, UniProt Q9WTR4); assay: In vitro determination of NET reuptake inhibition ([3H]Nixosetine binding, rat brain cortex)
T2 construct: Cortex from rat brain was collected and homogenised; from tissue; host or cells: rat brain cortex
T2 sequence (Q9WTR4 1-597): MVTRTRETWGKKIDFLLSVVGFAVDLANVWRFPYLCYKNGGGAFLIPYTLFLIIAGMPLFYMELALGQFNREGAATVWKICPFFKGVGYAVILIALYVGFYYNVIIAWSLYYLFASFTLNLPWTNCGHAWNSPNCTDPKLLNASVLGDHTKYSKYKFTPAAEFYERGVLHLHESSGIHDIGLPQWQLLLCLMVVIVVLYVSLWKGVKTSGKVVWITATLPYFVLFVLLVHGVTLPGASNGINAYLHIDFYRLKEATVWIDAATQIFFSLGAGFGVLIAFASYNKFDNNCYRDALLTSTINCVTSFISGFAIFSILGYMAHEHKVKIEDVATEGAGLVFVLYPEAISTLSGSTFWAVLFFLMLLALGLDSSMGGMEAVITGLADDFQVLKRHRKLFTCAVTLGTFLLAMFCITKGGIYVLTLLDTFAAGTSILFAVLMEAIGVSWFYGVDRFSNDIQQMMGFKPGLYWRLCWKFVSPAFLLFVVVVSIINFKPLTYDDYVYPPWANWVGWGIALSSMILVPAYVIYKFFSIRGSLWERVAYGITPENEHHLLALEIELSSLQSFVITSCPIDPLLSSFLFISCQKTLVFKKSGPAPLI
Method: Cortex from rat brain was collected and homogenised using an Ultra-Turrax T25 and a Dual homogeniser in ice-cold homogenising buffer containing Tris, NaCl and KCl (50 mM, 120 mM and 5 mM, respectively, pH 7.4) prior to dilution to an appropriate protein concentration optimised for specific and non-specific binding. […] Membrane-bound activity was detected by filtration through a Packard Filtermate harvester onto GF/B Unifilterplates, washed with ice-cold Tris-HCl buffer, containing NaCl and KCl (50 mM, 120 mM and 4 mM; pH 7.4; 6×0.5 ml). Filters were allowed to dry for 24 h before adding scintillation fluid. Scintillation fluid was allowed to saturate filters for 24 h before counting in a Topcount scintillation counter. Percentage specific bound and competition binding curves were calculated using S-Plus software (Insightful).

[3] = molecular target: T3, human cloned 5-HT2A receptor (Homo sapiens, UniProt P28223); assay: In vitro binding affinity for 5-HT2A receptor (radioligand binding)
T3 construct: expressed in transfected cells; host or cells: L929 cells
T3 sequence (P28223 whole entry): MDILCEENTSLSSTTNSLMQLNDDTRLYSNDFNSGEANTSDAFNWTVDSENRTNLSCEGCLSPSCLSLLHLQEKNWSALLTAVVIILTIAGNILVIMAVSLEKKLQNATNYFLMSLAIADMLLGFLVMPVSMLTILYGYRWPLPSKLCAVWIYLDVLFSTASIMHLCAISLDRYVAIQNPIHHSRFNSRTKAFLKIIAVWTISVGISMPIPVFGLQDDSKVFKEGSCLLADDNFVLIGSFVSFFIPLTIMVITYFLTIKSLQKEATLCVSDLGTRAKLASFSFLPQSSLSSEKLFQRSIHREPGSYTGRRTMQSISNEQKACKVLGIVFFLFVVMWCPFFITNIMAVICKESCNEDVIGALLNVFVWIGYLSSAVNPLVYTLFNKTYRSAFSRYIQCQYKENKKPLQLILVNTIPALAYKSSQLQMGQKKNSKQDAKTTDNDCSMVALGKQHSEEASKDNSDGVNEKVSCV
Method: as §1, with “concentration. The affinities of the compounds for the 5-HT2 receptors were measured by means of radioligand binding studies conducted with: (a) human cloned 5-HT2A receptor, expressed in L929 cells using [^125I]R91150 as radioligand and (b) human cloned 5-HT2C receptor, expressed in CHO cells using [^3H]mesulergine as radioligand.” for “concentration.”

[4] = molecular target: T4, human Dopamine D2L receptor (Homo sapiens, UniProt P14416); assay: In vitro binding affinity for human D2L receptor ([3H]Spiperone)
T4 construct: expressed in transfected cells; host or cells: CHO cells
T4 sequence (P14416 whole entry): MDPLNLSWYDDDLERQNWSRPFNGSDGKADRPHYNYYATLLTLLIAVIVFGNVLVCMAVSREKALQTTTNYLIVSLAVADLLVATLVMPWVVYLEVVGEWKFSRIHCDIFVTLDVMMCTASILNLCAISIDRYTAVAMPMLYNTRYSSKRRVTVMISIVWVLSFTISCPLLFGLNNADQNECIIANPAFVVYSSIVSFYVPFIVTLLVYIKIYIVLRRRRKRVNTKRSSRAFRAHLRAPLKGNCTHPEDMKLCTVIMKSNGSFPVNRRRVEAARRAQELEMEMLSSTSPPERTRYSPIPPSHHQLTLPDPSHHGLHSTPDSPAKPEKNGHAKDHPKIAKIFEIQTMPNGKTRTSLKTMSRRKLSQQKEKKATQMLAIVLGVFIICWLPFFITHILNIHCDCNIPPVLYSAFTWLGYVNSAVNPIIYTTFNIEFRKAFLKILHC
Method: Frozen membranes of human Dopamine D2L receptor-transfected CHO cells were thawed, briefly homogenised using an Ultra-Turrax T25 homogeniser and diluted in Tris-HCl assay buffer containing NaCl, CaCl2, MgCl2, KCl (50, 120, 2, 1, and 5 mM respectively, adjusted to pH 7.7 with HCl) to an appropriate protein concentration optimised for specific and non-specific binding. Radioligand [^3H]Spiperone (NEN, specific activity ˜70 Ci/mmol) was diluted in assay buffer at a concentration of 2 nmol/L. Prepared radioligand (50 μl), along with 50 μl of either the 10% DMSO control, Butaclamol (10^−6 mol/l final concentration), or compound of interest, was then incubated (30 min, 37° C.) with 400 μl of the prepared membrane solution. Membrane-bound activity was filtered through a Packard Filtermate harvester onto GF/B Unifilterplates and washed with ice-cold Tris-HCl buffer (50 mM; pH 7.7; 6×0.5 ml). Filters were allowed to dry before adding scintillation fluid and counting in a Topcount scintillation counter. Percentage specific bound and competition binding curves were calculated using S-Plus software (Insightful).

[5] = human cloned 5-HT2C receptor, radioligand binding, read-out: h-5HT2C (converted)
[6] = rat brain cortex, [3H]Nixosetine, read-out: NET Reuptake Inhibition (converted)
[7] = human cloned 5-HT2A receptor, radioligand binding, read-out: h-5HT2A (converted)
[8] = human D2L receptor-transfected CHO cell membranes, [3H]Spiperone, read-out: h-D2L (converted)
[9] = h-5HT2C, human cloned 5-HT2C receptor, radioligand binding
[10] = NET Reuptake Inhibition, rat brain cortex, [3H]Nixosetine
[11] = h-5HT2A, human cloned 5-HT2A receptor, radioligand binding
[12] = h-D2L, human D2L receptor-transfected CHO cell membranes, [3H]Spiperone

| Compound | IC50 [1, 5] [nM] | IC50 [2, 6] [nM] | IC50 [3, 7] [nM] | IC50 [4, 8] [nM] | also measured |
| --- | --- | --- | --- | --- | --- |
| CCNCC1CC2=C(O1)c1cc(F)ccc1Sc1ccccc12 (stereo not shown) (as salt: oxalate) [Compound 18] | – | – | – | – | melting point: 240.7 °C |
| CN(C)CC1CC2=C(O1)c1ccccc1Cc1ccccc12 (stereo not shown) (as salt: oxalate) [Compound 22] | – | – | – | – | melting point: 172.8 °C |
| O=S(=O)(c1ccccc1)N1CCN(CC2CC3=C(O2)c2cc(F)ccc2Cc2ccccc23)CC1 (stereo not shown) [Compound 48] | 200 | > 10000 | 398 | 3160 | – |
| Cc1ccc(S(=O)(=O)N2CCN(CC3CC4=C(O3)c3cc(F)ccc3Oc3ccccc34)CC2)cc1 (stereo not shown) [Compound 50] | 316 | 1580 | 200 | 2000 | – |
| CC(C)OC(=O)N1CCN(CC2CC3=C(O2)c2cc(F)ccc2Cc2ccccc23)CC1 (stereo not shown) [Compound 63] | 501 | > 10000 | 251 | 3980 | – |
| O=C(Oc1ccccc1)N1CCN(CC2CC3=C(O2)c2cc(F)ccc2Cc2ccccc23)CC1 (stereo not shown) [Compound 65] | – | – | – | – | IC50 [1, 9]: 126 nM; IC50 [2, 10]: 3160 nM; IC50 [3, 11]: 50.1 nM; IC50 [4, 12]: 1000 nM |
| O=C(Oc1ccccc1)N1CCN(CC2CC3=C(O2)c2cc(F)ccc2Oc2ccccc23)CC1 (stereo not shown) [Compound 66] | – | – | – | – | IC50 [1, 9]: 316 nM; IC50 [2, 10]: 1260 nM; IC50 [3, 11]: 126 nM; IC50 [4, 12]: 794 nM |
| COc1ccc(OC(=O)N2CCN(CC3CC4=C(O3)c3cc(F)ccc3Cc3ccccc34)CC2)cc1 (stereo not shown) [Compound 67] | – | – | – | – | IC50 [1, 9]: 50.1 nM; IC50 [2, 10]: 3160 nM; IC50 [3, 11]: 20 nM; IC50 [4, 12]: 398 nM |
| COc1ccc(OC(=O)N2CCN(CC3CC4=C(O3)c3cc(F)ccc3Oc3ccccc34)CC2)cc1 (stereo not shown) [Compound 68] | – | – | – | – | IC50 [1, 9]: 251 nM; IC50 [2, 10]: 1580 nM; IC50 [3, 11]: 63.1 nM; IC50 [4, 12]: 794 nM |
| O=C(OCc1ccccc1)N1CCN(CC2CC3=C(O2)c2cc(F)ccc2Cc2ccccc23)CC1 (stereo not shown) [Compound 69] | 1000 | 7940 | 501 | 1260 | – |
| O=C(OCc1ccccc1)N1CCN(CC2CC3=C(O2)c2cc(F)ccc2Oc2ccccc23)CC1 (stereo not shown) [Compound 70] | 631 | > 10000 | 1000 | 251 | – |
| O=C(c1ccccc1)N1CCN(CC2CC3=C(O2)c2cc(F)ccc2Cc2ccccc23)CC1 (stereo not shown) [Compound 71] | 15.8 | 5010 | 6.31 | 126 | – |
| O=C(c1ccccc1)N1CCN(CC2CC3=C(O2)c2cc(F)ccc2Oc2ccccc23)CC1 (stereo not shown) [Compound 72] | 63.1 | 6310 | 25.1 | 398 | – |
| O=C(NCc1ccccc1)N1CCN(CC2CC3=C(O2)c2cc(F)ccc2Cc2ccccc23)CC1 (stereo not shown) [Compound 87] | 100 | 7940 | 631 | 794 | – |
| O=C(NCc1ccccc1)N1CCN(CC2CC3=C(O2)c2cc(F)ccc2Oc2ccccc23)CC1 (stereo not shown) [Compound 88] | 100 | 1580 | 158 | 1260 | – |
| CCCn1c2c(c3ccccc31)C1=C(CC(CNC)O1)c1ccccc1S2 (stereo not shown) [Compound 93] | 10 | 100 | 25.1 | 398 | – |
| CCCn1c2c(c3ccccc31)C1=C(CC(CN(C)C)O1)c1ccccc1S2 (stereo not shown) [Compound 94] | 39.8 | 1260 | 126 | 1000 | – |
| C=CCn1c2c(c3ccccc31)C1=C(CC(CNC)O1)c1ccccc1S2 (stereo not shown) [Compound 95] | 6.31 | 158 | 7.94 | 398 | – |
| CN(CC(=O)O)C[C@H]1CC2=C(O1)c1cc(F)ccc1Cc1ccccc12 [Compound 107] | 7.94 | – | 10 | 3980 | melting point: 194.7 °C |
| CN(CCC(=O)O)C[C@H]1CC2=C(O1)c1cc(F)ccc1Cc1ccccc12 [Compound 108] | 12.6 | 398 | 12.6 | 3980 | – |
| CN(C/C=C/C(=O)O)C[C@H]1CC2=C(O1)c1cc(F)ccc1Cc1ccccc12 [Compound 109] | 12.6 | 398 | 15.8 | 3160 | – |
| CN(C/C=C/c1ccccc1)C[C@H]1CC2=C(O1)c1cc(F)ccc1Cc1ccccc12 [Compound 110] | – | – | – | – | IC50 ([1]; h-5HT2C): 5.01 nM; IC50 ([2]; NET Reuptake Inhibition): 1000 nM; IC50 ([3]; h-5HT2A): 12.6 nM; IC50 ([4]; h-D2L): 158 nM |
| CCOC(=O)CN(C)C[C@H]1CC2=C(O1)c1cc(F)ccc1Cc1ccccc12 [Compound 113] | 10 | 3980 | 15.8 | 1580 | – |
| CNC(=O)CN(C)C[C@H]1CC2=C(O1)c1cc(F)ccc1Cc1ccccc12 [Compound 116] | 7.94 | 2510 | 10 | 3160 | – |
| CN(CC(=O)NS(C)(=O)=O)C[C@H]1CC2=C(O1)c1cc(F)ccc1Cc1ccccc12 [Compound 120] | – | – | – | – | melting point: 88.5 °C |
| CCS(=O)(=O)N(C)CC1CC2=C(O1)c1cc(F)ccc1Cc1ccccc12 (stereo not shown) [Compound 127] | 10 | > 10000 | 200 | > 10000 | – |
| CN(C)CC1CC2=C(O1)c1ccsc1Cc1ccccc12 (stereo not shown) [Compound 131] | 7.94 | 794 | 39.8 | 200 | melting point: 174 to 176 °C |
| CNCC1CC2=C(O1)c1ccc(F)cc1Cc1ccccc12 (stereo not shown) [Compound 135] | 2.51 | 631 | 5.01 | 3160 | – |
| CNCC1CC2=C(O1)c1c(F)cccc1Cc1ccccc12 (stereo not shown) [Compound 136] | 2 | 100 | 25.1 | 1580 | – |
| CN(C)CCC1CC2=C(O1)c1cc(F)ccc1Cc1ccccc12 (stereo not shown) [Compound 137] | 3.16 | 158 | 12.6 | 1580 | – |
